# From patent US8232305B2, “Anti-microbial compositions” (BASF SE, priority 2006, dated 2012)
# Experiments:
# Escherichia coli = assay: Microbicidal activity according to EN1040; type: cell-based; conditions: 1000 ppm, room temperature, vs growth control in water
# Experimental: (§1) A bacterial suspension with a cell count of about 10^7 cfu/ml is contacted with appropriate concentrations of the specific substances and the residual cell count determined after incubation times of 5 and 30 minutes at room temperature under continuous stirring. Staphylococcus aureus was tested as gram+ and Escherichia coli as gram− organism. The results are given as a log reduction in comparison to a growth control in water.
# Staphylococcus aureus = assay: Microbicidal activity according to EN1040; type: cell-based; conditions: 1000 ppm, room temperature, vs growth control in water
# Experimental: as §1
# C. albicans = assay: Preservative challenge test in cosmetic emulsions (EurPh and USP); type: cell-based; conditions: 0.5% w/w
# Experimental: (§2) A preservative challenge test is conducted for representative cosmetic formulations according to the conditions of the EurPh and USP. The compound concentration in the formulations is 0.5% w/w. The Inoculum concentration of the five different strains is 2.1-4.2×10^5 cfu/ml, incubation time according to EurPh. 2, 7, 14 and 28 days. Preservation is investigated in two different emulsion types, w/o and o/w.
# S. aureus = assay: as above; type: cell-based; conditions: 0.5% w/w
# Experimental: as §2
# E. coli = assay: as above; type: cell-based; conditions: 0.5% w/w
# Experimental: as §2
# P. aerug. = assay: as above; type: cell-based; conditions: 0.5% w/w
# Experimental: as §2
# A. niger = assay: as above; type: cell-based; conditions: 0.5% w/w
# Experimental: as §2
# Aspergillus niger = assay: Fungicidal activity according to EN12175; type: cell-based; conditions: spores about 10^6 cfu/ml, vs water control
# Experimental: (§3) Fungicidal activity is tested according to EN12175. A fungal spore suspension with a spore cell count of about 10^6 cfu/ml is contacted with appropriate concentrations of the specific substances and the residual spore cell count determined after incubation times of 30 and 60 minutes at room temperature under continuous stirring. Penicillium funiculosum, Aspergillus niger and Aureobasidium pullulans are tested as important mold strains. The results are given as a log reduction at each incubation time in comparison to a water control.
# Penicillium funiculosum = assay: Fungicidal activity according to EN12175; type: cell-based; conditions: spores about 10^6 cfu/ml, vs water control
# Experimental: as §3
# Aureobasidium pullulans = assay: Fungicidal activity according to EN12175; type: cell-based; conditions: spores about 10^6 cfu/ml, vs water control
# Experimental: as §3
# A. niger ATCC 16404 = assay: Microbicidal activity under conditions similar to a preservative challenge test; type: cell-based; conditions: 0.5%, inoculum 10^5 cfu/ml
# Experimental: as §1
# (§4) The test procedure of Example 7 is used, with an inoculum concentration of 10^5 cfu/ml and incubation times of 48 and 72 hours; figures given as log reduction.
# C. albicans ATCC 10231 = assay: as above; type: cell-based; conditions: 0.5%, inoculum 10^5 cfu/ml
# Experimental: as §1, §4
# P. aeruginosa ATCC 15442 = assay: as above; type: cell-based; conditions: 0.5%, inoculum 10^5 cfu/ml
# Experimental: as §1, §4
# E. coli ATCC 10536 = assay: as above; type: cell-based; conditions: 0.5%, inoculum 10^5 cfu/ml
# Experimental: as §1, §4
# S. aureus ATCC 6538 = assay: as above; type: cell-based; conditions: 0.5%, inoculum 10^5 cfu/ml
# Experimental: as §1, §4
# [1] = Formulation of stable w/o or o/w emulsions; type: physicochemical; conditions: comparable concentrations (0.5% w/w) in the w/o and o/w emulsions of Example 10
molecule,measurement,setting,value
CCCCCCCCCCCCOC(=O)C[n+]1ccn(C)c1.[Br-] [Ex 4],log reduction E. coli 5 min.,Escherichia coli; 5 min,>5 log
same,log reduction E. coli 30 min.,Escherichia coli; 30 min,>5 log
same,log reduction S. aureus 5 min.,Staphylococcus aureus; 5 min,>5 log
same,log reduction S. aureus 30 min.,Staphylococcus aureus; 30 min,>5 log
same,Log Reduction C. albicans,"C. albicans; O/W emulsion, 2 days",0 log
same,Log Reduction C. albicans,"C. albicans; O/W emulsion, 7 days",0 log
same,Log Reduction C. albicans,"C. albicans; O/W emulsion, 14 days",0 log
same,Log Reduction C. albicans,"C. albicans; O/W emulsion, 28 days",0 log
same,Log Reduction C. albicans,"C. albicans; W/O emulsion, 2 days",2 log
same,Log Reduction C. albicans,"C. albicans; W/O emulsion, 7 days",3 log
same,Log Reduction C. albicans,"C. albicans; W/O emulsion, 14 days",3 log
same,Log Reduction C. albicans,"C. albicans; W/O emulsion, 28 days",5 log
same,Log Reduction S. aureus,"S. aureus; O/W emulsion, 2 days",4 log
same,Log Reduction S. aureus,"S. aureus; O/W emulsion, 7 days",6 log
same,Log Reduction S. aureus,"S. aureus; O/W emulsion, 14 days",6 log
same,Log Reduction S. aureus,"S. aureus; O/W emulsion, 28 days",6 log
same,Log Reduction S. aureus,"S. aureus; W/O emulsion, 2 days",6 log
same,Log Reduction S. aureus,"S. aureus; W/O emulsion, 7 days",6 log
same,Log Reduction S. aureus,"S. aureus; W/O emulsion, 14 days",6 log
same,Log Reduction S. aureus,"S. aureus; W/O emulsion, 28 days",6 log
same,Log Reduction E. coli,"E. coli; O/W emulsion, 2 days",1 log
same,Log Reduction E. coli,"E. coli; O/W emulsion, 7 days",1 log
same,Log Reduction E. coli,"E. coli; O/W emulsion, 14 days",2 log
same,Log Reduction E. coli,"E. coli; O/W emulsion, 28 days",≧4 log
same,Log Reduction E. coli,"E. coli; W/O emulsion, 2 days",6 log
same,Log Reduction E. coli,"E. coli; W/O emulsion, 7 days",6 log
same,Log Reduction E. coli,"E. coli; W/O emulsion, 14 days",6 log
same,Log Reduction E. coli,"E. coli; W/O emulsion, 28 days",6 log
same,Log Reduction P. aerug.,"P. aerug.; O/W emulsion, 2 days",≧4 log
same,Log Reduction P. aerug.,"P. aerug.; O/W emulsion, 7 days",5 log
same,Log Reduction P. aerug.,"P. aerug.; O/W emulsion, 14 days",5 log
same,Log Reduction P. aerug.,"P. aerug.; O/W emulsion, 28 days",5 log
same,Log Reduction P. aerug.,"P. aerug.; W/O emulsion, 2 days",5 log
same,Log Reduction P. aerug.,"P. aerug.; W/O emulsion, 7 days",5 log
same,Log Reduction P. aerug.,"P. aerug.; W/O emulsion, 14 days",5 log
same,Log Reduction P. aerug.,"P. aerug.; W/O emulsion, 28 days",5 log
same,Log Reduction A. niger,"A. niger; O/W emulsion, 2 days",0 log
same,Log Reduction A. niger,"A. niger; O/W emulsion, 7 days",0 log
same,Log Reduction A. niger,"A. niger; O/W emulsion, 14 days",0 log
same,Log Reduction A. niger,"A. niger; O/W emulsion, 28 days",0 log
same,Log Reduction A. niger,"A. niger; W/O emulsion, 2 days",0 log
same,Log Reduction A. niger,"A. niger; W/O emulsion, 7 days",1 log
same,Log Reduction A. niger,"A. niger; W/O emulsion, 14 days",2 log
same,Log Reduction A. niger,"A. niger; W/O emulsion, 28 days",2 log
same,log reduction A. niger 30 min,"Aspergillus niger; 1%, 30 min",2.1 log
same,log reduction A. niger 1 h,Aspergillus niger; 1 h,>4 log
same,log reduction P. funiculosum 30 min,"Penicillium funiculosum; 1%, 30 min",<1 log
same,log reduction P. funiculosum 1 h,Penicillium funiculosum; 1 h,1.9 log
same,log reduction A. pullulans 30 min,"Aureobasidium pullulans; 1%, 30 min",>4 log
same,log reduction A. pullulans 1 h,Aureobasidium pullulans; 1 h,>4 log
same,log reduction A. niger ATCC 16404 48 h,A. niger ATCC 16404; 48 h,1.8 log
same,log reduction A. niger ATCC 16404 72 h,A. niger ATCC 16404; 72 h,2.3 log
same,log reduction C. albicans ATCC 10231 48 h,C. albicans ATCC 10231; 48 h,>3 log
same,log reduction C. albicans ATCC 10231 72 h,C. albicans ATCC 10231; 72 h,>3 log
same,log reduction P. aeruginosa ATCC 15442 48 h,P. aeruginosa ATCC 15442; 48 h,>3 log
same,log reduction P. aeruginosa ATCC 15442 72 h,P. aeruginosa ATCC 15442; 72 h,>3 log
same,log reduction E. coli ATCC 10536 48 h,E. coli ATCC 10536; 48 h,>3 log
same,log reduction E. coli ATCC 10536 72 h,E. coli ATCC 10536; 72 h,>3 log
same,log reduction S. aureus ATCC 6538 48 h,S. aureus ATCC 6538; 48 h,>3 log
same,log reduction S. aureus ATCC 6538 72 h,S. aureus ATCC 6538; 72 h,>3 log
benzalkonium chloride,stability of w/o or o/w emulsions formulated with the agent,[1],No stable w/o or o/w emulsions could be formulated
